Source: patent US9867794B2, “Regulation of osteopontin” (Pathologica LLC, priority 2007, dated 2018)
Several values for one entry are separate records, joined by “and”; a condition that tells them apart may be missing. Equal values may be shown once.

Columns and labels:
TNFα = assay: Microarray analysis of mononuclear cells, TNFα probe; format: cell-based, human
Protocol: (§1) Blood samples were obtained from HIV infected patients (N=9) with positive viral load and reduced CD4 counts, and non-HIV infected, healthy controls (N=6). Blood was collected into heparin anticoagulant tubes and mononuclear cells were isolated by Percoll gradient centrifugation. The cells from each sample were split into 2: one-half receives MGBG at concentration of 10 μM and the other half received no treatment. All samples were then cultured overnight in RPMI media with 10% fetal bovine serum at 37° C. under non-adherent conditions. The next day cells were collected by centrifugation, washed one time with PBS, and lysed by resuspension in TRIZOL, and total RNA was prepared according to manufacturer's instructions (Invitrogen, Carlsbad, Calif.). […] The RNA was then amplified for microarray analysis using a 2 cycle amplification protocol according to the manufacturer's instructions (Affymetrix, Santa Clara, Calif.). The amplified RNAs were then hybridized to Human Genome U133 plus 2.0 microarrays (Affymetrix) and expression data was obtained using an Affymetrix scanner and GCOS protocols. Microarray data was analyzed with GeneSpring Microarray Suite. Results were normalized using a set of 100 probe sets determined by the manufacturer to have relatively invariant expression across most cell types.

LILRA1 [1] = assay: Quantitative RT-PCR, unsorted mononuclear cells, LILRA1; format: cell-based, human
Protocol: (§2) To evaluate the effect of MGBG on gene expression, blood samples were obtained from patients (N=18, 10 HIV-infected and 8 Healthy Controls). Mononuclear cells were isolated via Percoll gradient centrifugation. The cells were split into two tubes, one treated with 10 μM of MGBG and the other non-treated. The cells were then cultured overnight in RPMI media plus 10% fetal bovine serum at 37 C under non-adherent conditions, collected, lysed using Trizol solution, and total RNA prepared according to manufacturer's instructions (Invitrogen, Carlsbad, Calif.).
(§3) Approximately 200 ng of total RNA prepared from each sample was converted to cDNA using the First Strand cDNA Synthesis Kit for RT-PCR [AMV] kit (Roche Applied Diagnostics, Indianapolis, Ind.) according to manufacturer's instructions. Around 5 ng of cDNA sample was then used for PCR performed on a LightCycler (Roche Applied Diagnostics, Indianapolis, Ind.) using the LightCycler FastStart DNA Master SYBR Green I kit. PCR conditions are as follows: 1 cycle of denaturation at 95° C. for 10 minutes, followed by 45 cycles of 95° C. for 10 seconds, 68° C. for 10 seconds, and 72° C. for 16 seconds.
(§4) The sequences of gene-specific primers evaluated are listed below. All samples were also amplified with the human β-actin LightCycler-Primer set (Roche Diagnostics).

SPP1 = assay: Quantitative RT-PCR, unsorted mononuclear cells, SPP1; format: cell-based, human
Protocol: as §2, §3, §4

OPN = OPN antibody staining of brains and lymph nodes of SIV-infected animals; format: in vivo, Rhesus macaques
Protocol: These monkeys were then treated with MGBG as described.

PBMCs = assay: Cell viability of PBMC cultures when CCS were collected; format: cell-based, human; conditions: each MGBG concentration (0.1-100 μM), when the CCS were collected
LILRA1 [2] = assay: Microarray analysis of mononuclear cells, LILRA1; format: cell-based, human; conditions: for LILRA1 signal +, Average: 10 μM MGBG
Protocol: as §1

Human Osteopontin (OPN) = assay: Osteopontin ELISA of PBMC cell culture supernatants (CCS); format: cell-based; conditions: for average OPN level in CCS: fifth day
Source text: Peripheral Blood Mononuclear Cells (PBMCs) were isolated from patients diagnosed with Amyotrophic Lateral Sclerosis (ALS), Alzheimer's Disease (AD), Human Immunodeficiency Virus (HIV), Breast Cancer, AIDS Dementia, and healthy donors. The heparinised blood was mixed with equal volumes of sterile phosphate-buffered saline (Ca^++, Mg^++ free PBS) and layered over Percoll (Amersham Biosciences, Piscataway, N.J.) at 1.087 g/ml. The cells were centrifuged and the mononuclear cell layer was collected. The PBMCs were cultured in a concentration of 1×10^6 cells/ml in non-adherent conditions in polypropylene tubes containing complete media (RPMI 1640, 10% fetal bovine serum (HyClone, Logan, Utah), 1% Sodium Pyruvate) and incubated in a 5% CO2, 37° C. humidified incubator. The cells were grown in the presence of 0 μM, 0.1 μM, 1 μM, 10 μM, or 100 μM MGBG plus complete media and the cell culture supernatants (CCS) were isolated on the fifth day and frozen at −20° C. until ready to be tested. Human Osteopontin (OPN) levels were measured with the Human Osteopontin ELISA kit (R&D Systems, Inc., Minneapolis, Minn.) according to manufacturer's instructions. The CCS were tested in duplicate and the Magellan v. 4.0 software (Salzburg, Austria) was used to analyze the results. The average OPN levels (ng/ml) in 0 μM, 0.1 μM, 1 μM, 10 μM, and 100 μM MGBG were measured. The results are depicted in FIGS. 3-7 as a graph comparing diseased sample with normal sample. […] The solid lines represent diseased cells and the dashed lines represent normal cells.

NBS1 = assay: Quantitative RT-PCR, unsorted mononuclear cells, NBS1; format: cell-based, human
Protocol: as §2, §3, §4

Osteopontin = assay: Macrophage Osteopontin production in migration assays; format: cell-based; conditions: 10 μM MGBG; from >200 ng/mL without drug
Protocol: Additionally, cells being targeted by MGBG were investigated. […] To elucidate the effects of MGBG and OPN on cell motility, migration assays were conducted. MGBG at 10 μM inhibited macrophage Osteopontin production from >200 ng/mL to nondetectable levels while simultaneously inhibiting HeLa cell invasion into a Matrigel matrix.

[3] = 10 μM MGBG overnight, individual samples
[4] = 10 μM MGBG, all unsorted samples

CC(/C=N/NC(=N)N)=N\NC(=N)N [MGBG, 1,1′ [methylethanediylidene]dinitrilodiguanidine]
samples less than 2 fold changed, TNFα probe (TNFα; HIV infected individuals): 6 out of 9
samples less than 2 fold changed, TNFα probe (TNFα; controls): 2 out of 6
average change for the TNFα Probe set, up-regulated (TNFα; presence of MGBG, all samples): 8.7 fold
Fold change LILRA1 by QRT-PCR (LILRA1 [1]; [3]): −1.91 fold and 1.01 fold and −3.10 fold and 1.31 fold and −2.87 fold and 1.52 fold and −3.97 fold and −2.27 fold and 1.11 fold and 1.34 fold and −4.79 fold and −1.31 fold and 1.28 fold and 13.45 fold
LILRA1 AVERAGE (LILRA1 [1]; 10 μM MGBG, all samples): 1.71 fold
LILRA1 MAX (LILRA1 [1]; 10 μM MGBG, all samples): 13.45 fold
LILRA1 MIN (LILRA1 [1]; 10 μM MGBG, all samples): −4.79 fold
Fold change SPP1 by QRT-PCR (SPP1; 10 μM MGBG overnight, untreated vs treated, negative = fold reduction, individual samples): −20.11 fold and −83.87 fold and −6.59 fold and −1.30 fold and −8.82 fold and −95.67 fold and −7.89 fold and −1.95 fold and −46.21 fold and −5.90 fold and −2.11 fold and −6.15 fold and −1.28 fold and −467.88 fold and −18.90 fold (2×) and −300.25 fold and −2.14 fold
Fold change SPP1, AVERAGE (SPP1; [4]): −60.9 fold
Fold change SPP1, MAX (SPP1; [4]): −1.3 fold
Fold change SPP1, MIN (SPP1; [4]): −467.9 fold
SPP1 fold changes between the untreated and the treated (SPP1; certain unsorted samples): up to 300 fold
SPP1 % >2 fold Changed (SPP1; share of samples, 10 μM MGBG): 83%
OPN in brains, antibody staining (OPN; FIG. 10, treated SIV-infected animals): complete removal of OPN
OPN staining in lymph nodes (OPN; FIG. 11, treated animals B146 and CB18): markedly decreased levels of OPN
cell viability (PBMCs): at least 75%
LILRA1 signal +, Average (LILRA1 [2]; average of HIV samples): 77
LILRA1 signal +, Average (LILRA1 [2]; average of control samples (C6-, M6-177)): 133
LILRA1 fold change, ON/MGBG ratio (down-regulation) (LILRA1 [2]; 10 μM, individual donor samples): 6.5 fold and 1.8 fold and 0.3 fold (2×) and 11.6 fold and 3.7 fold and 3.1 fold and 13.8 fold and 2.4 fold and 0.5 fold and 1.1 fold and 2.9 fold and 14.6 fold and 1.3 fold (2×)
samples with LILRA1 down-regulated more than 2 fold (LILRA1 [2]; HIV samples): 5 of 9
LILRA1 signal + (LILRA1 [2]; presence of 10 μM MGBG overnight, individual donor samples): 40 and 129 and 10 and 65 and 246 and 73 and 42 and 99 and 94 and 212 and 277 and 21 and 1 and 15 and 164
average OPN level in CCS (Human Osteopontin (OPN); AD PBMCs (n=1), 0.1 μM MGBG): 0.477 ng/mL
average OPN level in CCS (Human Osteopontin (OPN); AD PBMCs (n=1), 1 μM MGBG): 0.201 ng/mL
average OPN level in CCS (Human Osteopontin (OPN); AD PBMCs (n=1), 10 μM MGBG): 0.136 ng/mL
average OPN level in CCS (Human Osteopontin (OPN); AD PBMCs (n=1), 100 μM MGBG): 0 ng/mL
average CCS OPN value (Human Osteopontin (OPN); AIDS Dementia PBMCs (AIRL2005-374), 10 μM MGBG): 0.8905
average CCS OPN value (Human Osteopontin (OPN); ALS PBMCs (n=2), 10 μM MGBG): 17.669
average OPN level in CCS (Human Osteopontin (OPN); HIV PBMCs (n=2), 0.1 μM MGBG): 11.833 ng/mL
average OPN level in CCS (Human Osteopontin (OPN); HIV PBMCs (n=2), 1 μM MGBG): 3.481 ng/mL
average OPN level in CCS (Human Osteopontin (OPN); HIV PBMCs (n=2), 10 μM MGBG): 0.447 ng/mL
average OPN level in CCS (Human Osteopontin (OPN); HIV PBMCs (n=2), 100 μM MGBG): 0 ng/mL
average OPN level in CCS (Human Osteopontin (OPN); breast cancer PBMCs (n=3), 0.1 μM MGBG): 20.89 ng/mL
average OPN level in CCS (Human Osteopontin (OPN); breast cancer PBMCs (n=3), 1 μM MGBG): 8.87 ng/mL
average OPN level in CCS (Human Osteopontin (OPN); breast cancer PBMCs (n=3), 10 μM MGBG): 2.12 ng/mL
average OPN level in CCS (Human Osteopontin (OPN); breast cancer PBMCs (n=3), 100 μM MGBG): 0.84 ng/mL
average OPN level in CCS (Human Osteopontin (OPN); healthy/normal PBMCs (n=3), 0.1 μM MGBG): 9.69 ng/mL
average OPN level in CCS (Human Osteopontin (OPN); healthy/normal PBMCs (n=3), 1 μM MGBG): 4.85 ng/mL
average OPN level in CCS (Human Osteopontin (OPN); healthy/normal PBMCs (n=3), 10 μM MGBG): 1.07 ng/mL
average OPN level in CCS (Human Osteopontin (OPN); healthy/normal PBMCs (n=3), 100 μM MGBG): 0.14 ng/mL
Fold change NBS1 by QRT-PCR (NBS1; [3]): 1.68 fold and 1.25 fold and 1.35 fold and −1.56 fold and 2.07 fold and 3.51 fold (2×) and −1.09 fold and 1.04 fold and 4.08 fold and 2.31 fold and 1.14 fold and 1.27 fold and −4.35 fold and −8.51 fold and −2.51 fold and −1.89 fold and 3.63 fold
NBS1 AVERAGE (NBS1; 10 μM MGBG, all samples): 1.65 fold
NBS1 MAX (NBS1; 10 μM MGBG, all samples): 4.08 fold
NBS1 MIN (NBS1; 10 μM MGBG, all samples): −8.51 fold
macrophage Osteopontin production (Osteopontin): nondetectable
